Results from patent US20040219201A1, “Tempamine compositions and methods of use” (priority 2001, published 2004).

Legend:
[1] = Pharmacokinetics and biodistribution in C26 tumor-bearing BALB/c mice; assay type: in vivo
Protocol: The pharmacokinetics and biodistribution of liposome-entrapped tempamine and of free tempamine were determined in healthy and in tumor-bearing mice. […] The liposome formulation included a lipid label to allow analysis of the distribution of the liposome lipids. The tempamine levels in blood and tissues were measured using the EPR technique set forth in the Methods section.
8 to 12-week-old BALB/c female mice, obtained through the Animal Breeding House of the Hebrew University (Jerusalem, Israel), were used throughout the study. Animals were housed at Hadassah Medical Center with food and water ad libitum. All procedures were in accordance with the standards required by the Institutional Animal Care and Use Cornmittee of the Hebrew University and Hadassah Medical Organization. Each mouse was injected with one inoculum of tumor cells (1×10^6 C26 cells) subcutaneously into the left flank. […] Phospholipid dose was 11 mg (14.7 μmole)/mouse (377 mg (514 μmole)/kg body weight). At 1, 4, 8, 24, and 48 hours after the injection, the animals were anesthetized with ether inhalation, bled by eye enucleation, and immediately sacrificed for removal of liver, lung, spleen, kidney, and tumor. Each time point consisted of 3 mice. Plasma was separated by centrifugation.
To measure the total tempamine concentration (encapsulated and free) in the organs, the liposomes were solubilized by homogenization in a Polytron homogenizer (Kinematica, Lutzern, Switzerland) in 2% Triton X-100 (1:2, organ:Triton X-100 solution). The homogenized mixture was cooled and heated several times to destroy the lipid membrane (Barenholz, Y., et al., in LIPOSOME TECHNOLOGY, G. Gregoriadis (Ed.), 2nd Edn., Vol. I, CRC Press, Boca Raton, pp. 527-616, (1993)). The plasma samples were mixed 1:1 with 2% Triton X-100 to give the 1% Triton X-100 in the tested sample and also cooled and heated several times. These conditions were effective to achieve a release of all entrapped tempamine from intact liposomes.
For deterrmination of the total concentration of nitroxide+hydroxylamine, potassium ferricyanide at a final concentration of 2-3 mM (depending on the tested tissue) was added to all the samples (plasma and organ homogenates) to oxidize the hydroxylamine to intact nitroxide.
From the samples prepared as described above in section F, duplicates of 100 μl were burned in a Sample Oxidizer (Model 307, Packard Instrument Co., Meridien, Conn.) and left overnight in a dark, cool place. The samples were then measured by β-counting (KONTRON Liquid Scintillation Counter).

[2] = test system: M-109S (doxorubicin-sensitive human breast carcinoma); test: Cytotoxicity assay (methylene blue); tempamine alone or doxorubicin plus tempamine; assay type: cell-based; conditions: Homo sapiens, read-out: IC50 (cytotoxicity)
Protocol: (§1) As described in Example 1, the cytotoxicity of tempamine was determined on three cell lines, MCF-7 (human breast adenocarcinoma), M-109S (doxorubicin-sensitive human breast carcinoma), and M-109R (doxorubicin-resistant human breast carcinoma). The effect of free tempamine on cell proliferation was determined by a methylene blue assay as described in Example 1B.
(§2) In yet another aspect, the invention contemplates administration of tempamine in combination with chemotherapeutic agent. […] Doxorubicin was chosen as a model chemotherpeutic agent. The enhancement of doxorubicin cytotoxicity by tempamine was tested on three cell lines, as described in Example 1A. A cytotoxicity assay as described in Example 1B was used. Two of the cell lines, MCF-7 and M-109S, were doxorubicin-sensitive lines and one cell line, M-109R, was doxorubicin resistant. MCF-7 cells are more sensitive to tempamine (100 μM caused 75% growth inhibition), but are less sensitive to doxorubicin, than are M-109S cells.
(§3) MCF-7 (human breast adenocarcinoma), M-109S (doxorubicin-sensitive human breast carcinoma), and M-109R (doxorubicin-resistant human breast carcinoma) were maintained in RPMI medium (Biological Industries, Beit HaEmek, Israel) supplemented with 10% fetal calf serum (FCS). The cell lines were maintained under standard culture conditions at 37° C. in a humidified 5% CO2 atmosphere.
(§4) The effect of tempamine on cell proliferation was determined by the methylene blue assay (Horowitz, A. T., et al., Biochim BiophysActa. 1109:203, (1992)). Briefly, cells were seeded onto 96-well plates (MCF cells at a density of 6×10^3 cells per well, and M-109S and M-109R at a density of 1.5×10^3 cells per well) and allowed to grow for 24 hours prior to treatment with different concentrations of tempamine. After the addition of tempamine (5×10^−5 to 4×10^−4), the cells were incubated in RPMI +10% FCS for four days without change of medium. Then the cells were fixed with 2.5% glutaraldehyde, stained with methylene blue and assayed spectrophotometrically.

[3] = test system: M-109R (doxorubicin-resistant human breast carcinoma); test: as above; assay type: cell-based
Protocol: as §1, §2, §3, §4

[4] = n-octanol/water partition coefficient (Kp); assay type: physicochemical
Protocol: Free tempamine gives well-defined peaks in both solutions of n-octanol and water. The peak area (or height) is proportional to the tempamine concentrations in the aqueous phase and in n-octanol. The tempaamine concentration in both solvents was determined from a calibration curve of temparnine in each of the two solvents n-octanol and water.
A. Partition Coefficients The n-octanol/water partition coefficient, Kp, of tempamine was measured to estimate its phase distribution in the liposomes, according to the procedure previously described (Samuni, A. et al., Free-Radic Biol Med., 22:1165 (1997)). Partition coefficients were measured at various pH levels (pH 4.0, 7.0, and 10.6), at tempamine concentrations of 2.0 mM and 20.0 mM and at different concentrations of ammonium sulfate (20-400 mM). The volume of each phase was 1 ml.

[5] = ammonium sulfate 20 mM, TMN 2 μmole
[6] = ammonium sulfate 20 mM, TMN 20 μmole
[7] = ammonium sulfate 150 mM, TMN 2 μmole
[8] = ammonium sulfate 150 mM, TMN 20 μmole
[9] = ammonium sulfate 400 mM, TMN 2 μmole
[10] = ammonium sulfate 400 mM, TMN 20 μmole

With `CC1(C)CC(N)CC(C)(C)N1[O]` [tempamine, 2,2,6,6-tetramethylpiperidine-4-amino-1-oxyl] the concentration at 4 h ([1]; female, BALB/c, mouse, intravenous, 18 mg/kg, free tempamine, 4 hour time point, read-out: tempamine level in other organs (detection minimum)) was < 0.1 µM, the AUC ([1]; female, BALB/c, mouse, plasma, iv, tumor-bearing mice, 18 mg/kg i.v.) was 170 ± 5 µg·h/mL and the clearance ([1]; female, BALB/c, mouse, plasma, iv, tumor-bearing mice, 18 mg/kg i.v., read-out: CL (ml/h), clearance rate (converted)) was 3.2 mL/h. The half-life ([1]; female, BALB/c, mouse, plasma, iv, tumor-bearing mice, 18 mg/kg i.v., read-out: T1/2 (h), blood circulation half-life (converted)) was 0.15 ± 0.009 h, the Vd ([1]; female, BALB/c, mouse, plasma, iv, tumor-bearing mice, 18 mg/kg i.v., read-out: Vss (ml), volume of distribution) was 55 ± 15.7 mL and the “tempamine in liver and spleen” value ([1]; free tempamine, 1 hour and 4 hours after injection) was “traces”. For the same compound, the “half-life of tempamine in plasma” value ([1]; mouse plasma) was “several minutes”, the IC50 [2] was ~700 µM and the IC50 ([3]; Homo sapiens, read-out: IC50 (cytotoxicity)) was ~700 µM. For the same compound, the “cell sensitivity to doxorubicin” value ([3]; M-109R, addition of 200 μM tempamine) was “enhanced cell sensitivity to doxorubicin”, the “n-octanol/aqueous phase (Kp), pH 7” value ([4]; ammonium sulfate 0 mM, TMN 20 μmole) was 0.278 and the “n-octanol/aqueous phase (Kp), pH 4” value [4, 5] was 0.031. For the same compound, the “n-octanol/aqueous phase (Kp), pH 7” value [4, 5] was 0.048, the “n-octanol/aqueous phase (Kp), pH 10.6” value [4, 5] was 2.418 and the “n-octanol/aqueous phase (Kp), pH 4” value [4, 6] was 0.074. The “n-octanol/aqueous phase (Kp), pH 7” value [4, 6] was 0.116, the “n-octanol/aqueous phase (Kp), pH 10.6” value [4, 6] was 2.386 and the “n-octanol/aqueous phase (Kp), pH 4” value [4, 7] was 0.024. For the same compound, the “n-octanol/aqueous phase (Kp), pH 7” value [4, 7] was 0.055, the “n-octanol/aqueous phase (Kp), pH 10.6” value [4, 7] was 2.184 and the “n-octanol/aqueous phase (Kp), pH 4” value [4, 8] was 0.049. For the same compound, the “n-octanol/aqueous phase (Kp), pH 7” value [4, 8] was 0.038, the “n-octanol/aqueous phase (Kp), pH 10.6” value [4, 8] was 3.969 and the “n-octanol/aqueous phase (Kp), pH 4” value [4, 9] was 0.028. The “n-octanol/aqueous phase (Kp), pH 7” value [4, 9] was 0.040, the “n-octanol/aqueous phase (Kp), pH 10.6” value [4, 9] was 3.005 and the “n-octanol/aqueous phase (Kp), pH 4” value [4, 10] was 0.046. For the same compound, the “n-octanol/aqueous phase (Kp), pH 7” value [4, 10] was 0.034 and the “n-octanol/aqueous phase (Kp), pH 10.6” value [4, 10] was 4.569.
